Laboratory results: patent US20260250318A1, “COMPOSITIONS AND METHODS FOR CROSSING THE BLOOD BRAIN BARRIER” (VOYAGER THERAPEUTICS, INC., priority 2022, published 2026)

Columns and labels:
[1] = test system: brains, heart, liver, muscle, and DRG of the NHPs; assay: Maturation of TTM-001 and TTM-002 capsids, NGS enrichment in NHP tissues; type: in vivo; conditions: relative to AAV9 control
Method in brief: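 Variants carry mutations within and flanking the loop IV peptide insert: positions 450–466 were triplet-randomized, while positions 449–466 received low-frequency point mutations. The combined pool went into two NHPs, and each peptide was scored by NGS enrichment ratio against AAV9.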

brain = assay: Matured TTM-001 and TTM-002 variants, NGS enrichment in mouse brain; type: in vivo, mice; conditions: relative to AAV9 control
[2] = NGS fold-enrichment of RNA, NHP brain
[3] = NGS fold-enrichment, NHP liver DNA
[4] = NGS fold-enrichment, NHP liver RNA
[5] = NGS fold-enrichment, NHP muscle
[6] = NGS fold-enrichment, mouse brain
[7] = NGS fold-enrichment of matured AAV capsid variants, NHP brain, RNA
[8] = NGS fold-enrichment, DRG of NHPs
[9] = NGS fold-enrichment, RNA, brain of NHPs
[10] = NGS fold-enrichment, heart of NHPs
[11] = NGS fold-enrichment, liver DNA of NHPs
[12] = NGS fold-enrichment, liver RNA of NHPs
[13] = NGS fold-enrichment, muscle of NHPs
[14] = NGS fold-enrichment, brain of mice

| Sequence | Fold Enrichment relative to AAV9, Brain (NHP) [1, 7] | Fold Enrichment relative to AAV9, DRG (NHP) ([1]; NHP DRG) | Fold Enrichment relative to AAV9, Heart (NHP) ([1]; NHP heart) | Fold Enrichment relative to AAV9, Liver DNA (NHP) ([1]; NHP liver, DNA) | Fold Enrichment relative to AAV9, Liver RNA (NHP) ([1]; NHP liver, RNA) | Fold Enrichment relative to AAV9, Muscle (NHP) ([1]; NHP muscle) | Fold Enrichment relative to AAV9, Brain (Mouse) (brain; mouse brain) | Fold Enrichment relative to AAV9, DRG (NHP) [1, 8] | Fold Enrichment relative to AAV9, Brain (NHP) [1, 9] | Fold Enrichment relative to AAV9, Heart (NHP) [1, 10] | Fold Enrichment relative to AAV9, Liver DNA (NHP) [1, 11] | Fold Enrichment relative to AAV9, Liver RNA (NHP) [1, 12] | Fold Enrichment relative to AAV9, Muscle (NHP) [1, 13] | Fold Enrichment relative to AAV9, Brain (Mouse) (brain; [14]) | also measured |
| --- | --- | --- | --- | --- | --- | --- | --- | --- | --- | --- | --- | --- | --- | --- | --- |
| KAVNGHDSPHKSVQNQQT |  |  |  |  |  |  |  |  |  |  |  |  |  |  | Fold Enrichment relative to AAV9, Brain (NHP) [1, 2]: 81.051 fold; Fold Enrichment relative to AAV9, DRG (NHP) ([1]; NGS fold-enrichment, NHP DRG): 0.448 fold; Fold Enrichment relative to AAV9, Heart (NHP) ([1]; NGS fold-enrichment, NHP heart): 0.051 fold; Fold Enrichment relative to AAV9, Liver DNA (NHP) [1, 3]: 0.091 fold; Fold Enrichment relative to AAV9, Liver RNA (NHP) [1, 4]: 0.665 fold; Fold Enrichment relative to AAV9, Muscle (NHP) [1, 5]: 0.000 fold; Fold Enrichment relative to AAV9, Brain (Mouse) (brain; [6]): 11.288 fold |
| KAVNVSGSPHSKAQNQQT | 54.586 fold | 0.000 fold | 0.000 fold | 0.023 fold | 0.000 fold | 0.000 fold | 57.835 fold |  |  |  |  |  |  |  |  |
| KEFVGSGSPHSKAQNQQT | 58.374 fold | 0.000 fold | 0.046 fold | 0.326 fold | 0.088 fold | 0.000 fold | 128.675 fold |  |  |  |  |  |  |  |  |
| KEINGRGSPHSKAQNQQT |  |  |  |  |  |  |  | 0.239 fold | 134.390 fold | 0.000 fold | 0.232 fold | 0.000 fold | 0.000 fold | 52.311 fold | Fold Enrichment relative to AAV9, Brain (NHP) [1, 2]: 134.390 fold; Fold Enrichment relative to AAV9, DRG (NHP) ([1]; NGS fold-enrichment, NHP DRG): 0.239 fold; Fold Enrichment relative to AAV9, Heart (NHP) ([1]; NGS fold-enrichment, NHP heart): 0.000 fold; Fold Enrichment relative to AAV9, Liver DNA (NHP) [1, 3]: 0.232 fold; Fold Enrichment relative to AAV9, Liver RNA (NHP) [1, 4]: 0.000 fold; Fold Enrichment relative to AAV9, Muscle (NHP) [1, 5]: 0.000 fold; Fold Enrichment relative to AAV9, Brain (Mouse) (brain; [6]): 52.311 fold |
| KELHGSGSPHSKAQNQQT |  |  |  |  |  |  |  | 0.000 fold | 102.680 fold | 0.000 fold | 0.592 fold | 1.634 fold | 0.000 fold | 96.554 fold | Fold Enrichment relative to AAV9, Brain (NHP) [1, 2]: 102.680 fold; Fold Enrichment relative to AAV9, DRG (NHP) ([1]; NGS fold-enrichment, NHP DRG): 0.000 fold; Fold Enrichment relative to AAV9, Heart (NHP) ([1]; NGS fold-enrichment, NHP heart): 0.000 fold; Fold Enrichment relative to AAV9, Liver DNA (NHP) [1, 3]: 0.592 fold; Fold Enrichment relative to AAV9, Liver RNA (NHP) [1, 4]: 1.634 fold; Fold Enrichment relative to AAV9, Muscle (NHP) [1, 5]: 0.000 fold; Fold Enrichment relative to AAV9, Brain (Mouse) (brain; [6]): 96.554 fold |
| KESDGSGSPHSKAQNQQT |  |  |  |  |  |  |  | 0.000 fold | 63.766 fold | 0.000 fold | 0.146 fold | 0.567 fold | 0.000 fold | 115.231 fold |  |
| KEVHGSGSPHSKAQNQQT |  |  |  |  |  |  |  | 0.000 fold | 67.901 fold | 0.000 fold | 0.000 fold | 0.727 fold | 0.000 fold | 100.111 fold |  |
| KEVQGSGSPHSKAQNQQT | 58.125 fold | 0.000 fold | 0.000 fold | 0.000 fold | 0.657 fold | 0.000 fold | 168.220 fold |  |  |  |  |  |  |  |  |
| KEVVGSGSPHSKAQNQQT | 56.371 fold | 0.000 fold | 0.000 fold | 0.323 fold | 0.000 fold | 0.000 fold | 116.964 fold |  |  |  |  |  |  |  |  |
| KGGEGSGSPHSKAQNQQT | 58.472 fold | 0.000 fold | 0.034 fold | 0.066 fold | 0.037 fold | 0.000 fold | 91.023 fold |  |  |  |  |  |  |  |  |
| KGVLGSGSPHSKAQNQQT | 54.472 fold | 0.000 fold | 0.007 fold | 0.189 fold | 0.359 fold | 0.027 fold | 145.740 fold |  |  |  |  |  |  |  |  |
| KIINGRDSPHKSGQDQQT |  |  |  |  |  |  |  |  |  |  |  |  |  |  | Fold Enrichment relative to AAV9, Brain (NHP) [1, 2]: 78.773 fold; Fold Enrichment relative to AAV9, DRG (NHP) ([1]; NGS fold-enrichment, NHP DRG): 0.000 fold; Fold Enrichment relative to AAV9, Heart (NHP) ([1]; NGS fold-enrichment, NHP heart): 0.254 fold; Fold Enrichment relative to AAV9, Liver DNA (NHP) [1, 3]: 0.156 fold; Fold Enrichment relative to AAV9, Liver RNA (NHP) [1, 4]: 0.000 fold; Fold Enrichment relative to AAV9, Muscle (NHP) [1, 5]: 0.000 fold; Fold Enrichment relative to AAV9, Brain (Mouse) (brain; [6]): 16.132 fold |
| KNADGSGSPHSKAQNQQT |  |  |  |  |  |  |  | 0.000 fold | 60.944 fold | 0.000 fold | 0.085 fold | 1.239 fold | 0.000 fold | 104.503 fold |  |
| KNAIGSGSPHSKAQNQQT | 52.516 fold | 0.000 fold | 0.000 fold | 0.198 fold | 0.165 fold | 0.000 fold | 117.939 fold |  |  |  |  |  |  |  |  |
| KNALGSGSPHSKAQNQQT |  |  |  |  |  |  |  | 0.000 fold | 60.014 fold | 0.003 fold | 0.213 fold | 0.682 fold | 0.000 fold | 137.222 fold |  |
| KNCLGSGSPHSKAQNQQT |  |  |  |  |  |  |  | 0.000 fold | 61.442 fold | 0.036 fold | 0.026 fold | 1.849 fold | 0.000 fold | 82.488 fold |  |
| KNCVGSGSPHSKAQNQQT |  |  |  |  |  |  |  | 0.000 fold | 60.535 fold | 0.000 fold | 0.282 fold | 0.018 fold | 0.000 fold | 96.175 fold |  |
| KNCWGSGSPHSKAQNQQT | 57.756 fold | 0.000 fold | 0.000 fold | 0.092 fold | 0.000 fold | 0.000 fold | 59.888 fold |  |  |  |  |  |  |  |  |
| KNHIGSGSPHSKAQNQQT |  |  |  |  |  |  |  | 0.000 fold | 64.535 fold | 0.000 fold | 0.187 fold | 1.253 fold | 0.000 fold | 70.356 fold |  |
| KNINGGGSPHSKAQNQQT |  |  |  |  |  |  |  | 0.000 fold | 83.083 fold | 0.042 fold | 0.000 fold | 0.000 fold | 0.000 fold | 75.913 fold | Fold Enrichment relative to AAV9, Brain (NHP) [1, 2]: 83.083 fold; Fold Enrichment relative to AAV9, DRG (NHP) ([1]; NGS fold-enrichment, NHP DRG): 0.000 fold; Fold Enrichment relative to AAV9, Heart (NHP) ([1]; NGS fold-enrichment, NHP heart): 0.042 fold; Fold Enrichment relative to AAV9, Liver DNA (NHP) [1, 3]: 0.000 fold; Fold Enrichment relative to AAV9, Liver RNA (NHP) [1, 4]: 0.000 fold; Fold Enrichment relative to AAV9, Muscle (NHP) [1, 5]: 0.000 fold; Fold Enrichment relative to AAV9, Brain (Mouse) (brain; [6]): 75.913 fold |
| KNINGSGSPHSKAQNHQT | 54.248 fold | 0.000 fold | 0.034 fold | 0.075 fold | 0.340 fold | 0.000 fold | 74.979 fold |  |  |  |  |  |  |  |  |
